Assay results published in PMC6435570, “Zafirlukast Is a Dual Modulator of Human Soluble Epoxide Hydrolase and Peroxisome Proliferator-Activated Receptor γ” (Frontiers in Pharmacology, 2019).
“Also recorded” adds a separate entry of the source.

Experiments:
[1] = test system: PPARγ target genes (LPL, GLUT-4, FABP-4, adiponectin) in 3T3-L1 adipocytes; experiment: PPARγ target gene mRNA expression in differentiated 3T3-L1 adipocytes (qRT-PCR); format: cell-based, murine; details: after 14 days; for mRNA expression of PPARγ target genes (LPL, GLUT-4, FABP-4, adiponectin): normalized to cells with activation cocktail only
Experimental: (§1) 3T3-L1 cells were differentiated into adipocytes for 14 days according to the protocol of [Zebisch et al. (2012)]. For this, cells were seeded in 6-well plates ([…]) and differentiation was induced after 48 h by addition of a differentiation cocktail containing 1 μg/mL insulin, 0.25 μM dexamethasone and 0.5 mM isobutylmethylxanthine (IBMX) in DMEM supplemented with 10% FCS and 1% PS. […] After 2 days, medium was replaced by DMEM supplemented with 10% FCS, 1% PS and 1 μg/mL insulin for 2 more days. Afterwards, cells were kept for lipid droplet accumulation in DMEM containing 10% FCS and 1% PS until day 15. Media were replaced every other day.
3T3-L1 cells were lysed using TRIzol® reagent (Ambion Life Technologies, Carlsbad, CA, United States). Subsequently, mRNA was isolated following the manufacturers protocol. DNA contaminations were digested using DNAse (DNase I, RNase-free Kit; Thermo Scientific, Waltham, MA, United States) and mRNA concentrations were determined using a NanoDrop^TM2000 spectrophotometer (Thermo Scientific, Waltham, MA, United States). Afterwards, reverse transcription was performed using the High Capacity RNA-to-cDNA Kit (Applied Biosystems, Foster City, CA, United States) following the manufacturers protocol. […] Relative mRNA expression was determined by the 2^-ΔΔCt method normalized to murine non-POU domain-containing octamer binding protein (Nono). All samples were measured in triplicates and experiments were repeated independently at least three times.
To gain further insight in PPARγ activation after compound treatment, mature 3T3-L1 adipocytes were harvested after 14 days and mRNA was isolated, reverse transcribed and subjected to quantitative RT-PCR. mRNA expression of the PPARγ target genes lipoprotein lipase (LPL), the glucose transporter 4 (GLUT-4), the fatty acid binding protein 4 (FABP-4) and adiponectin was monitored by quantitative PCR (Figure 3A–D and Supplementary Figure S1). […]

[2] = test system: 3T3-L1 cells; experiment: 3T3-L1 adipocyte differentiation, Oil Red O lipid accumulation; format: cell-based, murine; details: differentiation cocktail plus zafirlukast or montelukast 1, 5, 10 μM or rosiglitazone 2 μM; 14 days
Experimental: as §1
Differentiated 3T3-L1 cells were washed with PBS and subsequently fixed for 60 min with formaldehyde (4% in PBS). Afterwards, cells were thoroughly rinsed with 60% isopropanol and incubated with Oil Red O solution (0.3% in 60% isopropanol) for 120 min. This was followed by the removal of the staining solution and thorough rinsing of the cell layer with ultrapure water. Finally, the plates were dried and pictures of the stained cell layers were taken.
For quantification of the accumulated dye, 3T3-L1 cells were seeded in 24-well plates (0.55 × 10^5/well) instead of 6-wells and the differentiation was carried out as described in the section ‘Adipocyte differentiation’. After 14 days of differentiation, cells were fixed and stained as described above. […] 100 μl of dye extract were transferred to a 96-well plate and absorbance was measured (λabs = 510 nm) by an Infinite F200 plate reader (Tecan Group Ltd., Männedorf, Switzerland). […]
As master regulator of adipocyte differentiation in men and mice, PPARγ plays a crucial role in the cell’s commitment to the adipocyte lineage by controlling important functions such as intracellular biosynthesis, transport and accumulation of lipids. […] Upon differentiation, different parameters such as lipid accumulation and PPARγ target gene expression can be assessed to investigate the PPARγ activating potential of the compounds of interest. […]

[3] = biological target: T1, human PPARγ ligand binding domain (Homo sapiens, UniProt P37231); experiment: PPAR reporter gene assay (Gal4 hybrid, PPARγ); details: for Emax: read-out: PPARγ maximal activation, HEK-293T, relative to pioglitazone (1 μM)
T1 sequence (P37231 238-503 limits assumed): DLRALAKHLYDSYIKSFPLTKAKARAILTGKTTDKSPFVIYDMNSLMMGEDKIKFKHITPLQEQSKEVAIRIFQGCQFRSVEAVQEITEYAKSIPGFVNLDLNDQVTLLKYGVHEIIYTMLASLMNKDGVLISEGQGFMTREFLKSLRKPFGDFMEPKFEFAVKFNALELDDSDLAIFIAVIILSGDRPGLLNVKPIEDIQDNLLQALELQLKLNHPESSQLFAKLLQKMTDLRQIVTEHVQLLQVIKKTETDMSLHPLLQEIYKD
Experimental: HEK-293T cells were seeded in 96-well plates (2.5 × 10^4 cells/well) and were allowed to adhere overnight. Before transfection, medium was changed to Opti-MEM without supplements. Transient plasmid transfection was carried out using Lipofectamine LTX reagent (Invitrogen, Carlsbad, CA, United States) according to the manufacturer’s protocol with pFR-Luc (Stratagene, La Jolla, CA, United States), pRL-SV40 (Promega, Fitchburg, MA, United States) and pFA-CMV-PPAR-LBD ([Rau et al., 2006]). 5 h after transfection, medium was changed to Opti-MEM supplemented with penicillin (100 U/mL) and streptomycin (100 μg/mL), now additionally containing 0.1% DMSO and the respective test compound or 0.1% DMSO alone as untreated control. Each concentration was tested in triplicates and each experiment was repeated independently at least four times. Following overnight (12–16 h) incubation with the test compounds, cells were assayed for luciferase activity using the Dual-Glo^TM Luciferase Assay System (Promega, Fitchburg, MA, United States) according to the manufacturer’s protocol. Luminescence was measured with an Infinite M200 luminometer (Tecan Group Ltd., Männedorf, Switzerland). Normalization of transfection efficiency and cell growth was done by division of firefly luciferase data by renilla luciferase data and multiplying the value by 1000 resulting in relative light units (RLU). Fold activation was obtained by dividing the mean RLU of a test compound at a respective concentration by the mean RLU of untreated control. Relative activation was obtained by dividing the fold activation of a test compound at a respective concentration by the fold activation of the respective PPARα, γ or δ full agonist GW-7647, pioglitazone or L165,041 at 1 μM. EC50 and standard deviation were calculated with the mean relative activation values of at least four independent experiments by SigmaPlot 10.0 (Systat Software GmbH, Erkrath, Germany) using a four parameter logistic regression.
For this, a hybrid receptor construct containing the respective human PPAR ligand binding domain and hinge region fused to the DNA binding domain of the yeast nuclear receptor Gal4 and a Gal4-responsive firefly luciferase construct were co-transfected into HEK-293T cells together with a plasmid constitutively expressing Renilla luciferase for normalization of transfection efficiency and cell growth. Activation of the PPAR isoforms was compared to 1 μM of the well characterized agonists GW7647, L165,041, and pioglitazone for PPARα, δ, and γ, respectively.

SMILES | mRNA expression of PPARγ target genes (LPL, GLUT-4, FABP-4, adiponectin) [1] | Lipid accumulation (Oil Red O staining) [2] | Emax ([3]; HEK-293T) [%] | Adiponectin mRNA level ([1]; compared to the other target genes) | EC50 [3] [nM] | PPARγ maximal activation ([3]; HEK-293T, relative to pioglitazone (1 μM)) [%]
CC(C)(O)c1ccccc1CC[C@@H](SCC1(CC(=O)O)CC1)c1cccc(/C=C/c2ccc3ccc(Cl)cc3n2)c1 [Montelukast, montelukast] | did not influence the expression | did not trigger any lipid accumulation; also recorded: did not induce cell lipid accumulation | 21.9 | – | – | –
COc1cc(C(=O)NS(=O)(=O)c2ccccc2C)ccc1Cc1cn(C)c2ccc(NC(=O)OC3CCCC3)cc12 [Zafirlukast, zafirlukast] | dose-dependently induced target gene expression although to a lesser extent compared to rosiglitazone | induced lipid accumulation in a dose-dependent manner, but to a lesser extend compared to rosiglitazone | ~150 | elevated adiponectin levels more effectively compared to the other target genes | 2490 ± 450 | 148 ± 15
